Laboratory results published in PMC7203344, “Sirtuin 1 Inhibiting Thiocyanates (S1th)—A New Class of Isotype Selective Inhibitors of NAD^+ Dependent Lysine Deacetylases” (Frontiers in Oncology, 2020).

Biological target: T1, Sirt1 (Homo sapiens, UniProt Q96EB6)
T1 construct: made in house; host or cells: E. coli BL21 Star (DE3)
T1 sequence (Q96EB6 134-747): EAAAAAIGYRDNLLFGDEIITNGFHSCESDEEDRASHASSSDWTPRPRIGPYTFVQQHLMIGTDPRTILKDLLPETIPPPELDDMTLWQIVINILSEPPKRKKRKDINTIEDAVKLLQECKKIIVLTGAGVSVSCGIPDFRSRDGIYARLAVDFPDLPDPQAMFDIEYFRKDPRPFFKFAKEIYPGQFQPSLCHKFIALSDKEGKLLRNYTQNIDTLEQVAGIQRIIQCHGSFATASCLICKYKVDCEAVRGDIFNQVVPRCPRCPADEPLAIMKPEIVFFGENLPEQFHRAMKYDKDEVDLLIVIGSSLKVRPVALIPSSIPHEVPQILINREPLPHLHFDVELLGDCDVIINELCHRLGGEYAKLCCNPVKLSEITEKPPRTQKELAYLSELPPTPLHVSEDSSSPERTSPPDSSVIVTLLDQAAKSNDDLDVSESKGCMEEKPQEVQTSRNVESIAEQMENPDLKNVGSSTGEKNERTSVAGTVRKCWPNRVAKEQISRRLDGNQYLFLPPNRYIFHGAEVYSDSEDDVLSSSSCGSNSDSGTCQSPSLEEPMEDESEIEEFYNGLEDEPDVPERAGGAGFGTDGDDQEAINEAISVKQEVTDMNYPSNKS
Test: Homogeneous ZMAL-based fluorescence assay, Sirt1
Assay type: biochemical
Settings: 4th round
Procedure: Recombinant human Sirt5_37−310 was purchased readily in Tris Buffer [25 mM Tris, 100 mM NaCl, 5 mM DTT, 10% glycerol (v/v)] from Enzo Life Sciences (NY, USA). Human Sirt3_118−395 was expressed and purified as described previously ([54]). For expression of human Sirt1_134−747 and Sirt2_56−356 chemically competent cells of E. coli BL21 Star (DE3) were transformed with the expression vectors pET30S-hSirt1_134−747 or pET30S-hSirt2_56−356. Bacteria were grown at 37°C in 2×YT medium supplemented with 50 μg·mL^−1 of kanamycin to an OD600 of 0.6. Then isopropyl-β-D-1-thiogalactopyranoside (IPTG) was added to a final concentration of 1 mM to induce gene expression. After further cultivation at 20°C for 12 h, the cells were harvested by centrifugation for 15 min at 5,000 g. The cells were resuspended in lysis buffer [100 mM Tris/HCl buffer at pH 8.0, 150 mM NaCl and 10% (v/v) glycerol] and disrupted by ultrasonication (Branson Digital Sonifier 250) at 70% amplitude for 10 min (3 s working, 10 s pause). The crude extract was cleared by centrifugation at 100,000 g for 1 h, and the supernatant was loaded onto a Strep-Tactin Superflow cartridge (5 ml bed volume, IBA Lifescience, Germany). Target proteins were eluted with lysis buffer containing 5 mM D-Desthiobiotin (IBA Lifescience, Germany) and further separated by size-exclusion chromatography (Superdex S200 26/60, GE Healthcare, IL, USA) equilibrated in Tris/HCl buffer (20 mM, 150 mM NaCl, pH 8.0). Pure protein was concentrated by ultrafiltration, flash-frozen in liquid nitrogen and stored at −80°C until further use. Identity as well as purity were verified by SDS-PAGE ([55]) and protein concentration was determined by the bicinchoninic acid (BCA) method, using bovine serum albumin (BSA) as a standard ([56]). Deacetylase activity was confirmed to be NAD^+-dependent and could be inhibited with the physiological sirtuin inhibitor nicotinamide.
All compounds were tested in the trypsin-coupled high-throughput ZMAL-assay in black 96-well plates (OptiPlateTM−96F, black, 96 well, Pinch bar design, PerkinElmer, USA), using ZMAL (Z-Lys(acetyl)-AMC) as a substrate ([57]). Sirt1_134−747, Sirt2_56−356, and Sirt3_118−395 were mixed with 5 μL substrate (10.5 μM final assay concentration, diluted from a […] stock in DMSO) and 3 μL Inhibitor in DMSO at various concentrations or DMSO as a control [final DMSO concentration 5% (v/v)]. The mixture was supplemented with assay buffer (50 mM Tris/HCl, 137 mM NaCl, 2.7 mM KCl, 1 mM MgCL2, pH 8.0) to a total volume of 55 μL. Enzyme concentration was adjusted to get a final conversion of 20–30%. Addition of 5 μL NAD^+ (6 mM in assay buffer, final assay concentration of 500 μM) initiated the catalytic reaction and the plates were incubated at 37°C for 4 h with agitation at 140 rpm. The catalytic reaction was stopped by addition of 60 μL stop solution [50 mM Tris, 100 mM NaCl, 6.7% (V/V) DMSO, 5.5 U/μL trypsin, 8 μM nicotinamide, pH 8.0]. The plate was again incubated at 37°C and 140 rpm for 20 min to release free AMC from the deacetylated substrate by trypsin digestion. Afterwards, fluorescence intensity was measured in a microplate reader (λEx = 390 nm, λEm = 460 nm, BMG POLARstar Optima, BMG Labtech, Germany). An enzyme-free blank control and a 100% conversion control containing AMC instead of ZMAL were measured in addition. Inhibition was calculated in % in relation to a DMSO control after blank signal subtraction and IC50 values were determined using a non-linear regression to fit the dose-response curve with OriginPro 9G (OriginLab, USA). Pre-tests as well as IC50 determination was carried out at least twice in duplicates.

Structure (SMILES) | IC50 [µM]
N#CSc1cc(SC#N)c(N)nc1N [PR-619, reference compound] | 2.7 ± 0.2
N#CSc1cccc(NC(=O)[C@H]2CC=CC[C@H]2C(=O)O)c1 [S1th 10] | 23 ± 6
CCCCNC(=O)Nc1cccc(SC#N)c1 [S1th 11] | 6.3 ± 0.8
COc1ccc(SC#N)cc1OCC(=O)N(CCC#N)CCC#N [S1th 12] | 5.9 ± 1.4
N#CSc1cccc(NS(=O)(=O)c2ccc3c(c2)OCCO3)c1 [S1th 13] | 5.2 ± 1
